Source: patent US10851102B2, “Imidazole and triazole containing bicyclic compounds as JAK inhibitors” (THERAVANCE BIOPHARMA R&D IP, LLC, priority 2019, dated 2020)

Experiments:
JAK2 = JAK2 (Homo sapiens (Human), UniProt O60674); test: Biochemical JAK and Tyk2 kinase assays (LanthaScreen): JAK2; settings: 1 h pre-incubation, ATP at Km; pIC50 converted to pKi by Cheng-Prusoff
Outline: (§1)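 Compound, GST-tagged JAK enzyme and GFP-labelled STAT1 peptide were first incubated together for 1 h at ambient temperature. ATP then started a 1 h reaction, which was stopped with EDTA and Tb-labelled anti-pSTAT1 (pTyr701) antibody. After 1 h, the 520/495 nm emission ratio gave percent inhibition; Ki derived by Cheng-Prusoff.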

JAK3 = JAK3 (Homo sapiens (Human), UniProt P52333); test: Biochemical JAK and Tyk2 kinase assays (LanthaScreen): JAK3; settings: for Ki: 1 h pre-incubation, ATP at Km, pIC50 converted to pKi by Cheng-Prusoff, read-out: JAK 3 (pKi) (converted); for JAK3 (pKi)-JAK1 (pKi): difference of pKi values, selectivity JAK3 over JAK1
Outline: as §1

[1] = tested on: IL-2 stimulated pSTAT5 in Tall-1 T cells (JAK3); test: Cellular JAK3 potency assay: inhibition of IL-2 stimulated pSTAT5 in Tall-1 T cells; format: cell-based; settings: IL-2 300 ng/ml, pSTAT5 AlphaLisa, Tall-1 human T cell line; read-out: Tall-1 (pIC50) (converted)
Outline: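 Human Tall-1 T cells (45,000/well) preincubated with compound 1 h at 37 °C, then stimulated with IL-2 (final 300 ng/ml) for 30 min. Lysates read for pSTAT5 (Tyr694/699) by AlphaLISA luminescence. IC50 from signal-versus-concentration curves, reported as pIC50 (mean±SD).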

[2] = Colon and plasma mouse pharmacokinetics; format: in vivo; settings: mouse; ratio of colon AUC to plasma AUC; male Balb/c mice, 10 mg/kg PO
Method: Assay 6: Colon and Plasma Mouse Pharmacokinetics
6 male Balb/c mice were administered 10 mg/kg of compound in 1% HPMC+0.1% Tween-80 by PO administration. At 0.5, 2 and 6 hours after dose administration, animals were anesthetized, and terminal blood samples were collected by cardiac puncture, followed by collection of colon contents and colon tissue.
Blood samples were collected into K2EDTA and stored on wet ice until processed to plasma by centrifugation (12,000 rpm at 4° C.). Plasma samples were transferred to cluster tubes and placed on dry ice prior to freezer storage. The colon contents from each animal were collected at each terminal blood collection time point. The colon tissues were flushed with saline and patted dry. The colon and colon content tissues were homogenized using sterile water containing 0.1% formic acid 9:1 (water:tissue, v/w). The homogenized tissues and colon contents were transferred to cluster tubes and placed on dry ice prior to freezer storage. All samples were analyzed using LC/MS/MS against analytical standards.
The composite pharmacokinetic parameters of the compounds were determined by non-compartmental analysis using Phoenix WinNonlin Version 6 (Certara, St. Louis, Mo.) and using mean values from 2 animals/time point. For plasma concentrations below the quantification limit (BQL), the lowest concentration measurable or the BLOQ (below limit of quantification) was used.
A colon to plasma ratio was determined as the ratio of the colon AUC to the plasma AUC.

JAK3, sequence (P52333 whole entry): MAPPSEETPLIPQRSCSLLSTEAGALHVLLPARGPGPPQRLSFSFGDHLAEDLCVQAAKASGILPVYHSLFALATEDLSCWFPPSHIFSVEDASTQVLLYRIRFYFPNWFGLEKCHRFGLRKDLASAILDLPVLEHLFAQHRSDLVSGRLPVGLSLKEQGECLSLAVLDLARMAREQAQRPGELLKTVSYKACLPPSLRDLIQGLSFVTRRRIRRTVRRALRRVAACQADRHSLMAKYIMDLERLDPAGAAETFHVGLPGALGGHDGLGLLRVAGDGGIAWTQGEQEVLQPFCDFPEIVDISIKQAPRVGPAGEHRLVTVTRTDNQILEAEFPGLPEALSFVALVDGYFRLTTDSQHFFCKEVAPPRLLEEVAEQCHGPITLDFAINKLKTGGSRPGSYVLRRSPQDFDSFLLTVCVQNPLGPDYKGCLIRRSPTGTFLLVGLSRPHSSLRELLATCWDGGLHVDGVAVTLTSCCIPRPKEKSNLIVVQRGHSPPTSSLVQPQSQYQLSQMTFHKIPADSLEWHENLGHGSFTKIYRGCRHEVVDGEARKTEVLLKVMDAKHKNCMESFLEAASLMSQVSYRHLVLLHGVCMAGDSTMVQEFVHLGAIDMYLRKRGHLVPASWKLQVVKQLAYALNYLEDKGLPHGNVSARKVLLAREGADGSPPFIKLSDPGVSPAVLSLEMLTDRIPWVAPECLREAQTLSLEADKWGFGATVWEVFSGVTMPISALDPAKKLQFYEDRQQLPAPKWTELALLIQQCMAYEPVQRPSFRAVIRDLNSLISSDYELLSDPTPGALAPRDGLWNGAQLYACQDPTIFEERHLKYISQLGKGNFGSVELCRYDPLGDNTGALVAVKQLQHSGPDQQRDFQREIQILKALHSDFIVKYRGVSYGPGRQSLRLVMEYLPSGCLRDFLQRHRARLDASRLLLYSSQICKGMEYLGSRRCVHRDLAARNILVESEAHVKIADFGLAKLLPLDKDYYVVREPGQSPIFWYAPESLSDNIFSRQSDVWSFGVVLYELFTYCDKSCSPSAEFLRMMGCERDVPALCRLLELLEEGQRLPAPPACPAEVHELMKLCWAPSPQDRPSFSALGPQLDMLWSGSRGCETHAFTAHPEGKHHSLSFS
JAK2, sequence (O60674 whole entry): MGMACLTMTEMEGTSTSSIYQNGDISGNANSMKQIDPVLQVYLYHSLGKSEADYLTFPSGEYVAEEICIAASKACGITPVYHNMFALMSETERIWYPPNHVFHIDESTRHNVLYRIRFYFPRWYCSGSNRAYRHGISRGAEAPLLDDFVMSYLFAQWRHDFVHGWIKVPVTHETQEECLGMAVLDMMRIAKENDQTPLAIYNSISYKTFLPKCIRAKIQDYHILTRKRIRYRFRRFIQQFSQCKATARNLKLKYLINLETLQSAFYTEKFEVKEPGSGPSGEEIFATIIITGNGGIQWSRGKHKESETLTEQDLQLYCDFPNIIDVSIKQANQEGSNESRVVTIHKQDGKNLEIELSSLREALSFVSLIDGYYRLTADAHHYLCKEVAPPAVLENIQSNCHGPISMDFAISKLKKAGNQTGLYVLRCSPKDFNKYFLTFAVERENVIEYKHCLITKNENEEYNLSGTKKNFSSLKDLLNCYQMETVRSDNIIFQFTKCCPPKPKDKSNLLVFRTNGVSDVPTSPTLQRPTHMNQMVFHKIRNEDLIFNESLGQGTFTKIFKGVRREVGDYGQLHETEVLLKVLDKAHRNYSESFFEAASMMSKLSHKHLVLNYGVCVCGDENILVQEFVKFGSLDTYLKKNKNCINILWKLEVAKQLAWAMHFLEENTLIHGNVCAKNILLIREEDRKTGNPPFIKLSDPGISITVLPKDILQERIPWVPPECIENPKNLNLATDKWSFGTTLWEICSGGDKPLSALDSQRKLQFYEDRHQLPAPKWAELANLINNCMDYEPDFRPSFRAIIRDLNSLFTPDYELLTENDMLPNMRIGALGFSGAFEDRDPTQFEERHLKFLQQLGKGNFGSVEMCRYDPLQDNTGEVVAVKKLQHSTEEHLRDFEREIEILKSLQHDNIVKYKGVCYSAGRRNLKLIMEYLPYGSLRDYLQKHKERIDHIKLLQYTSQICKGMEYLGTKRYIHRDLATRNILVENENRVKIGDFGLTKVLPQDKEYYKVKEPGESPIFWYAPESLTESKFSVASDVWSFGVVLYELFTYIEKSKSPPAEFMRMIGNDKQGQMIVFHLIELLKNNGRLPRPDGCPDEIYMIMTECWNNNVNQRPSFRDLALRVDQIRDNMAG

| Structure (SMILES) | JAK 2 (pKi) (JAK2) | Ki (JAK3) | JAK3 (pKi)-JAK1 (pKi) (JAK3) | IC50 [1] | Kp [2] |
| --- | --- | --- | --- | --- | --- |
| C=CC(=O)N1CC(COc2cc(-c3cc(F)c(O)cc3CC)cn3cncc23)C1 [Example 13, 1-(3-(((6-(2-ethyl-5-fluoro-4-hydroxyphenyl)imidazo[1,5-a]pyridin-8-yl)oxy)methyl)azetidin-1-yl)prop-2-en-1-one] | E (E represents a pKi value of 7 or below (Ki of 100 nM or above)) | 0.1 to 1 nM | A (A represents a value of 3 or above) | ≤ 31.6 nM | > 200 |
| C=CC(=O)N1CC(COc2cc(-c3ccc(O)c(Cl)c3)cn3cncc23)C1 [Example 12, 1-(3-(((6-(3-chloro-4-hydroxyphenyl)imidazo[1,5-a]pyridin-8-yl)oxy)methyl)azetidin-1-yl)prop-2-en-1-one] | E (E represents a pKi value of 7 or below (Ki of 100 nM or above)) | 0.1 to 1 nM | A (A represents a value of 3 or above) | 31.6 to 200 nM | > 200 |
